In ChEMBL document CHEMBL3045112, “In vitro antimicrobial assessment of coumarin-based s-triazinyl piperazines” (2012):
≈ marks a conversion by molar mass, not a printed value.

Key:
Type in all cases: functional
Candida albicans [1] = test: Antifungal activity against Candida albicans after 48 hr by agar plate method
Staphylococcus aureus [2] = test: Antibacterial activity against Staphylococcus aureus after 24 hr by disk diffusion test
Candida albicans [3] = test: Antifungal activity against Candida albicans after 48 hr by disk diffusion test
Bacillus subtilis [4] = test: Antibacterial activity against Bacillus subtilis after 24 hr by disk diffusion test
Escherichia coli [5] = test: Antibacterial activity against Escherichia coli after 24 hr by agar plate method
Aspergillus niger [6] = test: Antifungal activity against Aspergillus niger after 48 hr by disk diffusion test
Aspergillus niger [7] = test: Antifungal activity against Aspergillus niger after 48 hr by agar plate method
Pseudomonas aeruginosa [8] = test: Antibacterial activity against Pseudomonas aeruginosa after 24 hr by disk diffusion test
Staphylococcus aureus [9] = test: Antibacterial activity against Staphylococcus aureus after 24 hr by agar plate method
Escherichia coli [10] = test: Antibacterial activity against Escherichia coli after 24 hr by disk diffusion test
Bacillus subtilis [11] = test: Antibacterial activity against Bacillus subtilis after 24 hr by agar plate method
Pseudomonas aeruginosa [12] = test: Antibacterial activity against Pseudomonas aeruginosa after 24 hr by agar plate method

| SMILES | MIC (Candida albicans [1]) | MIC (Escherichia coli [5]) | MIC (Aspergillus niger [7]) | MIC (Staphylococcus aureus [9]) | MIC (Bacillus subtilis [11]) | MIC (Pseudomonas aeruginosa [12]) | inhibition zone (IZ) (Staphylococcus aureus [2]) | inhibition zone (IZ) (Candida albicans [3]) | inhibition zone (IZ) (Bacillus subtilis [4]) | inhibition zone (IZ) (Aspergillus niger [6]) | inhibition zone (IZ) (Pseudomonas aeruginosa [8]) | inhibition zone (IZ) (Escherichia coli [10]) |
| --- | --- | --- | --- | --- | --- | --- | --- | --- | --- | --- | --- | --- |
| O=c1cc(Oc2nc(Nc3ccccc3)nc(N3CCN(c4cccc(Cl)c4Cl)CC3)n2)c2ccccc2o1 | 12.5 µg/mL (≈ 22.3 µM) | 50 µg/mL (≈ 89.1 µM) | 12.5 µg/mL (≈ 22.3 µM) | 25 µg/mL (≈ 44.5 µM) | 12.5 µg/mL (≈ 22.3 µM) | 12.5 µg/mL (≈ 22.3 µM) | 22 mm | 22 mm | 23 mm | 20 mm | 23 mm | 21 mm |
| Cc1cc(=O)oc2cc(Oc3nc(Nc4ccccc4)nc(N4CCN(C)CC4)n3)ccc12 | 100 µg/mL (≈ 225 µM) | 100 µg/mL (≈ 225 µM) | 100 µg/mL (≈ 225 µM) | 100 µg/mL (≈ 225 µM) | 100 µg/mL (≈ 225 µM) | 100 µg/mL (≈ 225 µM) | 19 mm | 20 mm | 21 mm | 16 mm | 20 mm | 16 mm |
| CCN1CCN(c2nc(Nc3ccccc3)nc(Oc3ccc4c(C)cc(=O)oc4c3)n2)CC1 | 100 µg/mL (≈ 218 µM) | 100 µg/mL (≈ 218 µM) | 100 µg/mL (≈ 218 µM) | 100 µg/mL (≈ 218 µM) | 50 µg/mL (≈ 109 µM) | 100 µg/mL (≈ 218 µM) | 17 mm | 20 mm | 21 mm | 20 mm | 21 mm | 16 mm |
| Cc1cc(=O)oc2cc(Oc3nc(Nc4ccccc4)nc(N4CCN(c5cccc(Cl)c5)CC4)n3)ccc12 | 12.5 µg/mL (≈ 23.1 µM) | 25 µg/mL (≈ 46.2 µM) | 25 µg/mL (≈ 46.2 µM) | 25 µg/mL (≈ 46.2 µM) | 50 µg/mL (≈ 92.4 µM) | 12.5 µg/mL (≈ 23.1 µM) | 22 mm | 25 mm | 23 mm | 23 mm | 24 mm | 22 mm |
| Cc1cc(=O)oc2cc(Oc3nc(Nc4ccccc4)nc(N4CCN(c5cccc(Cl)c5Cl)CC4)n3)ccc12 | 12.5 µg/mL (≈ 21.7 µM) | 12.5 µg/mL (≈ 21.7 µM) | 12.5 µg/mL (≈ 21.7 µM) | 25 µg/mL (≈ 43.4 µM) | 12.5 µg/mL (≈ 21.7 µM) | 12.5 µg/mL (≈ 21.7 µM) | 24 mm | 25 mm | 25 mm | 23 mm | 24 mm | 23 mm |
| Cc1cc(=O)oc2cc(Oc3nc(Nc4ccccc4)nc(N4CCCCC4)n3)ccc12 | 50 µg/mL (≈ 116 µM) | 25 µg/mL (≈ 58.2 µM) | 12.5 µg/mL (≈ 29.1 µM) | 50 µg/mL (≈ 116 µM) | 100 µg/mL (≈ 233 µM) | 100 µg/mL (≈ 233 µM) | 21 mm | 22 mm | 19 mm | 22 mm | 21 mm | 22 mm |
| Cc1cc(=O)oc2cc(Oc3nc(Nc4ccccc4)nc(N4CCOCC4)n3)ccc12 | 50 µg/mL (≈ 116 µM) | 50 µg/mL (≈ 116 µM) | 50 µg/mL (≈ 116 µM) | 100 µg/mL (≈ 232 µM) | 100 µg/mL (≈ 232 µM) | 100 µg/mL (≈ 232 µM) | 20 mm | 22 mm | 20 mm | 21 mm | 17 mm | 22 mm |
| Cc1cc(=O)oc2cc(Oc3nc(Nc4ccccc4)nc(N4CCN(c5ccccc5)CC4)n3)ccc12 | 100 µg/mL (≈ 197 µM) | 100 µg/mL (≈ 197 µM) | 100 µg/mL (≈ 197 µM) | 100 µg/mL (≈ 197 µM) | 100 µg/mL (≈ 197 µM) | 100 µg/mL (≈ 197 µM) | 17 mm | 18 mm | 20 mm | 17 mm | 15 mm | 17 mm |
| CC(=O)N1CCN(c2nc(Nc3ccccc3)nc(Oc3ccc4c(C)cc(=O)oc4c3)n2)CC1 | 25 µg/mL (≈ 52.9 µM) | 12.5 µg/mL (≈ 26.5 µM) | 50 µg/mL (≈ 106 µM) | 25 µg/mL (≈ 52.9 µM) | 50 µg/mL (≈ 106 µM) | 25 µg/mL (≈ 52.9 µM) | 22 mm | 25 mm | 23 mm | 21 mm | 23 mm | 23 mm |
| Cc1cc(=O)oc2cc(Oc3nc(Nc4ccccc4)nc(N4CCN(C(C)C)CC4)n3)ccc12 | 100 µg/mL (≈ 212 µM) | 100 µg/mL (≈ 212 µM) | 100 µg/mL (≈ 212 µM) | 100 µg/mL (≈ 212 µM) | 100 µg/mL (≈ 212 µM) | 100 µg/mL (≈ 212 µM) | 19 mm | 19 mm | 18 mm | 19 mm | 18 mm | 18 mm |
| Cc1cc(=O)oc2cc(Oc3nc(Nc4ccccc4)nc(N4CCN(c5ccccn5)CC4)n3)ccc12 | 25 µg/mL (≈ 49.3 µM) | 25 µg/mL (≈ 49.3 µM) | 12.5 µg/mL (≈ 24.6 µM) | 12.5 µg/mL (≈ 24.6 µM) | 12.5 µg/mL (≈ 24.6 µM) | 50 µg/mL (≈ 98.5 µM) | 23 mm | 23 mm | 24 mm | 23 mm | 22 mm | 22 mm |
| Cc1cc(=O)oc2cc(Oc3nc(Nc4ccccc4)nc(N4CCN(c5ncccn5)CC4)n3)ccc12 | 25 µg/mL (≈ 49.2 µM) | 25 µg/mL (≈ 49.2 µM) | 25 µg/mL (≈ 49.2 µM) | 6.25 µg/mL (≈ 12.3 µM) | 12.5 µg/mL (≈ 24.6 µM) | 50 µg/mL (≈ 98.3 µM) | 24 mm | 24 mm | 24 mm | 22 mm | 23 mm | 21 mm |

More lines, main results first:

| MIC (Candida albicans [1]) | MIC (Escherichia coli [5]) | MIC (Aspergillus niger [7]) | MIC (Staphylococcus aureus [9]) | MIC (Bacillus subtilis [11]) | MIC (Pseudomonas aeruginosa [12]) | SMILES | inhibition zone (IZ) (Staphylococcus aureus [2]) | inhibition zone (IZ) (Candida albicans [3]) | inhibition zone (IZ) (Bacillus subtilis [4]) | inhibition zone (IZ) (Aspergillus niger [6]) | inhibition zone (IZ) (Pseudomonas aeruginosa [8]) | inhibition zone (IZ) (Escherichia coli [10]) |
| --- | --- | --- | --- | --- | --- | --- | --- | --- | --- | --- | --- | --- |
| 100 µg/mL (≈ 232 µM) | 100 µg/mL (≈ 232 µM) | 100 µg/mL (≈ 232 µM) | 100 µg/mL (≈ 232 µM) | 100 µg/mL (≈ 232 µM) | 100 µg/mL (≈ 232 µM) | CN1CCN(c2nc(Nc3ccccc3)nc(Oc3cc(=O)oc4ccccc34)n2)CC1 | 16 mm | 17 mm | 20 mm | 14 mm | 17 mm | 16 mm |
| 100 µg/mL (≈ 225 µM) | 100 µg/mL (≈ 225 µM) | 100 µg/mL (≈ 225 µM) | 100 µg/mL (≈ 225 µM) | 50 µg/mL (≈ 112 µM) | 100 µg/mL (≈ 225 µM) | CCN1CCN(c2nc(Nc3ccccc3)nc(Oc3cc(=O)oc4ccccc34)n2)CC1 | 17 mm | 19 mm | 20 mm | 17 mm | 18 mm | 15 mm |
| 12.5 µg/mL (≈ 23.7 µM) | 25 µg/mL (≈ 47.4 µM) | 50 µg/mL (≈ 94.9 µM) | 50 µg/mL (≈ 94.9 µM) | 25 µg/mL (≈ 47.4 µM) | 25 µg/mL (≈ 47.4 µM) | O=c1cc(Oc2nc(Nc3ccccc3)nc(N3CCN(c4cccc(Cl)c4)CC3)n2)c2ccccc2o1 | 21 mm | 23 mm | 21 mm | 20 mm | 23 mm | 22 mm |
| 100 µg/mL (≈ 241 µM) | 25 µg/mL (≈ 60.2 µM) | 12.5 µg/mL (≈ 30.1 µM) | 100 µg/mL (≈ 241 µM) | 50 µg/mL (≈ 120 µM) | 100 µg/mL (≈ 241 µM) | O=c1cc(Oc2nc(Nc3ccccc3)nc(N3CCCCC3)n2)c2ccccc2o1 | 19 mm | 20 mm | 20 mm | 21 mm | 16 mm | 22 mm |
| 100 µg/mL (≈ 240 µM) | 25 µg/mL (≈ 59.9 µM) | 6.25 µg/mL (≈ 15 µM) | 100 µg/mL (≈ 240 µM) | 100 µg/mL (≈ 240 µM) | 100 µg/mL (≈ 240 µM) | O=c1cc(Oc2nc(Nc3ccccc3)nc(N3CCOCC3)n2)c2ccccc2o1 | 19 mm | 19 mm | 16 mm | 21 mm | 17 mm | 22 mm |
| 100 µg/mL (≈ 203 µM) | 100 µg/mL (≈ 203 µM) | 100 µg/mL (≈ 203 µM) | 100 µg/mL (≈ 203 µM) | 100 µg/mL (≈ 203 µM) | 100 µg/mL (≈ 203 µM) | O=c1cc(Oc2nc(Nc3ccccc3)nc(N3CCN(c4ccccc4)CC3)n2)c2ccccc2o1 | 17 mm | 16 mm | 17 mm | 15 mm | 15 mm | 16 mm |
| 50 µg/mL (≈ 109 µM) | 12.5 µg/mL (≈ 27.3 µM) | 100 µg/mL (≈ 218 µM) | 25 µg/mL (≈ 54.5 µM) | 100 µg/mL (≈ 218 µM) | 50 µg/mL (≈ 109 µM) | CC(=O)N1CCN(c2nc(Nc3ccccc3)nc(Oc3cc(=O)oc4ccccc34)n2)CC1 | 23 mm | 20 mm | 20 mm | 18 mm | 22 mm | 22 mm |
| 100 µg/mL (≈ 218 µM) | 100 µg/mL (≈ 218 µM) | 25 µg/mL (≈ 54.5 µM) | 100 µg/mL (≈ 218 µM) | 50 µg/mL (≈ 109 µM) | 100 µg/mL (≈ 218 µM) | CC(C)N1CCN(c2nc(Nc3ccccc3)nc(Oc3cc(=O)oc4ccccc34)n2)CC1 | 20 mm | 17 mm | 18 mm | 21 mm | 18 mm | 18 mm |
| 25 µg/mL (≈ 50.7 µM) | 25 µg/mL (≈ 50.7 µM) | 12.5 µg/mL (≈ 25.3 µM) | 12.5 µg/mL (≈ 25.3 µM) | 25 µg/mL (≈ 50.7 µM) | 50 µg/mL (≈ 101 µM) | O=c1cc(Oc2nc(Nc3ccccc3)nc(N3CCN(c4ccccn4)CC3)n2)c2ccccc2o1 | 23 mm | 21 mm | 21 mm | 20 mm | 20 mm | 20 mm |
| 12.5 µg/mL (≈ 25.3 µM) | 50 µg/mL (≈ 101 µM) | 12.5 µg/mL (≈ 25.3 µM) | 12.5 µg/mL (≈ 25.3 µM) | 12.5 µg/mL (≈ 25.3 µM) | 50 µg/mL (≈ 101 µM) | O=c1cc(Oc2nc(Nc3ccccc3)nc(N3CCN(c4ncccn4)CC3)n2)c2ccccc2o1 | 23 mm | 22 mm | 22 mm | 19 mm | 20 mm | 21 mm |
